Data from US9512178B2, “Neurogenic brain-derived neurotrophic factor peptides” (Research Foundation for Mental Hygiene, Inc., priority 2012, dated 2016).

Legend:
[1] = test system: primary E18 hippocampal cells; assay: Rescue of H2O2-induced neurotoxicity (LDH assay); type: cell-based, mouse; details: then treatment 24 h
Method: Evaluation of cell death and cell viability was performed using the LDH kit (Promega, Madison Wis., USA), following manufactures instructions. Percentages of cell death and cell viability were plotted separately.
In order to evaluate the potential neuroprotective effect of BDNF peptides, the primary E18 hippocampal cells were challenged with 0, 60, 80 and 100 μM H2O2 for 6 hours, and then cells were washed with culture medium and fresh culture medium was added containing the peptides B-5 or B-3 or BDNF or BDNF plus B-3 (see FIGS. 4A and 4B). After 24 hours, the cell viability was assayed by the LDH method.

[2] = phase III, amyotrophic lateral sclerosis, daily subcutaneous administration; cited from earlier work
[3] = test system: E18 primary hippocampal neurons; assay: Western blots of neuronal markers, densitometry; type: cell-based, mouse; details: 5 days
Method: (§1) Following treatment in 6-well plates, cells were washed 2× in glucose buffered saline, GBS (5.4 mM KCl, 138 mM NaCl, 22 mM glucose, and 2 mM Na—KPO pH 7.2), and then lysed by 5 min incubation on ice in 100 or 150 μl of ice-cold RIPA buffer (PBS, 1% w/v NP-40 from Fisher Scientific, 0.1% w/v SDS, and 0.5% w/v sodium desoxycholate) containing 1 mM AEBSF (Gold Biotechnology, St. Louis, Mo., USA), 10 μg/ml aprotinin (Sigma-Aldrich, St. Louis, Mo., USA), and 20 μg/ml of leupeptin and pepstatin (US Biochemicals, Cleveland, Ohio, USA), and phosphatase inhibitors: NaF, Na orthovanadate, (3-glycerophosphate, and microcystein (Sigma-Aldrich, St. Louis, Mo., USA). Extracts were prepared by collecting and pooling a minimum of 2 wells by scraping, and lysates were centrifuged at 20,000×g for 10 min at 4° C. Protein concentration of each cell lysate was determined using the BCA kit (Thermo Scientific, Rockford, Ill., USA). The lysates (7.5-20 μg total protein) were separated on 10% SDS-PAGE gels (except for BDNF where 12% gels were employed) and transferred to 0.45 μm PVDF membrane (Pall, Pensacola, Fla., USA) for probing with antibodies as noted. Blots were blocked for 1 hr at 37° C. in 1×TBST (0.05% Tween 20 in TBS) containing 5% w/v blotting grade dry milk (Bio-rad, Hercules, Calif., USA), incubated in primary antibody overnight in blocking buffer at 4° C., washed 3×10 min in TBST at room temperature, followed by incubation with secondary antibody, i.e., peroxidase-conjugated anti-mouse or anti rabbit IgG (Jackson ImmunoResearch Laboratories, West Grove, Pa., USA) diluted in blocking buffer. Blots were washed 3×10 min in TBST and immunoreactive protein bands were visualized with enhanced chemiluminescence (ECL) reagents (Pierce, Rockford, Ill., USA). The ECL films of the blots were scanned and analyzed using Multi Gauge software version 3.0 (Fujifilm, Tokyo, Japan).
(§2) The following primary antibodies were used: rabbit polyclonal anti-NFM (1:1000; Chemicon/Millipore, Billerica, Mass., USA); mouse monoclonal anti-NeuN, clone A60 (1:500; Millipore, Billerica, Mass., USA); rabbit polyclonal anti-Tuj-1, (3—III-tubulin (Covance; 1:800, Emeryville, Calif., USA); mouse monoclonal SMI 52 to the adult isoforms of MAP-2, MAP2a,b (1:1000; Covance, Emeryvilly, Calif., USA); rabbit polyclonal anti-Synapsin I (1:2000; Stressgen, Farmingdale, N.Y., USA); rabbit monoclonal anti-PSD95 (1:1000; Cell signaling, Danvers, Mass., USA); anti tau 92e (1:10000); mouse monoclonal anti-BDNF (1:1000; Calbiochem, Gibbstown, N.J., USA); rabbit polyclonal anti-TrkB (total) (1:500; Santa Cruz Biotechnology, Santa Cruz, Calif., USA); rabbit polyclonal anti-pTrkB (Tyr706) (1:400; Santa Cruz Biotechnology, Santa Cruz, Calif., USA), TrkC (1:1000; Cruz Biotechnology, Santa Cruz, Calif., USA); and pTrkY490 (1:500; Upstate USA Inc., Charlottesville, Va., USA). For loading control, the blots were developed with rabbit polyclonal antibody to GAPDH (1:2000; Santa Cruz Biotechnology, Santa Cruz, Calif., USA).
To biochemically study the effect of BDNF peptides in inducing expression of neuronal markers, protein samples were recovered from cells treated with peptides B-5, B-4, B-3, or vehicle for five days. As a positive control, protein samples were collected from cells treated with BDNF at 20 ng/ml (0.79 nM) or 100 ng/ml (3.95 nM) (FIG. 3D, E). Western blots of the cell lysates were developed with antibodies to Synapsin I (presynaptic marker), PSD95 (postsynaptic marker), NeuN (late neuronal marker), NFM (early neuronal marker), MAP2 (dendritic marker), 0-IIItubulin (early neuronal marker), and tau 92e (axonal marker).

BDNF = BDNF expression, Western blot, 5 days treatment; type: cell-based, mouse; details: vs control medium
Method: as §1, §2
To investigate the molecular mechanism by which the BDNF peptides promoted neurogenic/neurotrophic activities, the hippocampal primary cultured neurons were treated with the peptides or BDNF for five days and compared with the control medium treated cells.

[4] = test system: mouse E18 primary hippocampal neurons; assay: Toxicity of the peptides: phase contrast morphology and LDH assay, 5 days treatment; type: cell-based; details: 1 μM
Excerpt: To screen these peptides, primary neuronal cell cultures were used from embryonic day 18 (E18) C57BL/6 mouse hippocampus. At the fourth day in vitro (DIV), the culture medium was exchanged with the medium containing the peptides. The primary neuronal cultures were established as taught in the art (see, e.g., Cardenas-Aguayo Mdel, Santa-Olalla et al. 2003, hereby incorporate by reference). Briefly, C57BL/6 time pregnant E18 female mice from Charles River Labs were anesthetized and killed by cervical dislocation following our Institutional Animal Care and Use Committee (IACUC) regulations and approved protocol. Embryos were removed and placed in cold Hibernate A (available from Brain bits, Springfield, Ill., USA), and all of the following steps were performed in ice-cold Hibernate A, under a stereoscopic (dissection) microscope placed in a laminar flow hood. Fetal brains were removed carefully and fore brain were separated. Then, the hippocampus, including the cortex surrounding the area of the hippocampus, was dissected and cut into small pieces using microsurgical scissors. The cut tissue was transferred with number 5 forceps to 15 ml tubes containing 0.1% trypsin in Versene (Invitrogen Life Technologies, Grand Island, N.Y., USA) and incubated for 15 min at 37° C. followed by inactivation with 10% fetal bovine serum (FBS) in Neurobasal complete medium (Neurobasal Medium supplemented with 2×B-27, 0.30% glutamine, and penicillin/streptomycin 0.1 mg/ml and 0.1 U/ml respectively). All medium components were purchased from Invitrogen, Grand Island, N.Y., USA. […]
To study any toxic effect of the peptides, mouse E18 primary hippocampal neurons were treated with the five BDNF peptides individually for up to 5 days at different doses [5 nM, 25 nM, 50 nM (data not shown), 100 nM (0.1 μM), 1000 nM (1 μM), and 10,000 nM (10 μM)]. […] Accordingly, there was no significant change in the viability of cells treated with any of the peptides as evaluated by the lactate dehydrogenase (LDH) assay (see FIG. 2B). […]

BDNF and TrkB = assay: Induction of BDNF and TrkB expression after pre-treatment with CHX or K252a; type: cell-based, mouse; details: two days of treatment
Method: (§3) Peptides were dissolved in water in serial dilutions of 10 mM, 1 mM, 100 μM and 10 μM from which the necessary amount was added directly to the culture medium to a final concentration of 0.05 μM, 1 μM, or 10 μM. The BDNF (Peprotech, NJ, USA) was used as a reference in concentrations of 20 ng/ml (0.79 nM) and 100 ng/ml (3.95 nM). Cycloheximide (CHX) (Sigma-Aldrich, St Louis, Mo., USA) was used for blocking protein synthesis. CHX original stock was 100 mg/ml (355.4 mM) in DMSO; from a second stock of 35.54 mM in DMSO, the dilutions were made to the final concentrations of 100 μM. The K252a (CALBIOCHEM/EMD) was used to inhibit the TrkB Receptor. From a stock of 100 μM in DMSO, K252a was diluted to a final working concentration of 200 nM. The E18 primary hippocampal cells were pre-treated with CHX or K252a 1 h prior to the addition of the peptides or BDNF and a time course of these treatments for 15 min, 60 min and 2 days was studied.
To evaluate whether the effect of B-5 and B-3 in induction of the expression of BDNF and TrkB was via the activation of the TrkB receptor and required signal transduction via TrkB and new protein synthesis, mouse embryonic E18 cultured hippocampal cells were pre-treated with the protein synthesis inhibitor, cycloheximide (CHX) or the Trk inhibitor K252a for 1 h, and then added Peptide B-5 at a concentration of 0.1 μM (the dose that gave the maximum induction of BDNF expression, FIGS. 5A and B) or BDNF 20 ng/ml as a positive control (FIG. 7C,D). A time course of these treatments was studied with Peptide B-5 or BDNF for 15 min, 60 min and two days.

TrkB receptor = molecular target: T1, TrkB receptor (Mus musculus, UniProt P15209); assay: TrkB phosphorylation (Tyr 706) and TrkB level in primary E18 hippocampal cells, with or without K252a; type: cell-based; details: K252a pretreatment 1 h (200 nM), then BDNF or peptides B-5 or B-3 for 5 min
T1 construct: endogenous in cells; host or cells: primary hippocampal neurons from embryonic day 18 C57BL/6 mice
Method: as §3, §1
as §2, with “Calif., USA). […]” for “Calif., USA).”

T1 sequence (P15209 32-821): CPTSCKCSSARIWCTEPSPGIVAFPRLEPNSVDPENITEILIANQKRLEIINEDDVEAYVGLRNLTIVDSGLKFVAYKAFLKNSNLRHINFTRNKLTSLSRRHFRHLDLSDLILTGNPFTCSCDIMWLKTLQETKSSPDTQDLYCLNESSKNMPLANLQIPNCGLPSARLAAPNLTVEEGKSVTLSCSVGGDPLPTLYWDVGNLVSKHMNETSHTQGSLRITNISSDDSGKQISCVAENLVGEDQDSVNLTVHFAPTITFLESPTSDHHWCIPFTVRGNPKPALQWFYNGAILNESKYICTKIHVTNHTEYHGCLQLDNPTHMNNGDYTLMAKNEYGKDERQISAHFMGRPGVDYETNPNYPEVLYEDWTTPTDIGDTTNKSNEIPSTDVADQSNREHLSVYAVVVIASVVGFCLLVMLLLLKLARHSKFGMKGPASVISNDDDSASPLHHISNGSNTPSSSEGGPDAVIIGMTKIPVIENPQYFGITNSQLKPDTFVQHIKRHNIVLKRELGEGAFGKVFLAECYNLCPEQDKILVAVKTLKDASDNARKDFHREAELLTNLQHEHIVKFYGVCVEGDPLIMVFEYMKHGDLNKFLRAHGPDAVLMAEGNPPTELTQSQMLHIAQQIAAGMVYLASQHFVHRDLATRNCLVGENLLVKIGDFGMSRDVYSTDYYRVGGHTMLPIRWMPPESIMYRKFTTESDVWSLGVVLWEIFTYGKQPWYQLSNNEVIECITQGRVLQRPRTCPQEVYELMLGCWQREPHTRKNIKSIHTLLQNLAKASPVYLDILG

Q: With “BDNF: Brain derived neurotrophic factor (Peprotech), used as a reference at 20 ng/ml and 100 ng/ml” as the compound, how does the “cell death (LDH)” value ([1]; 0 μM H2O2 6 h) read?
A: The value was “not statistically significant”.

Q: What about the “cell viability (LDH)” value ([1]; 0 μM H2O2 6 h) of the same compound?
A: The value was “increased cell viability significantly”.

Q: And the “cell death (LDH)” value ([1]; 60 μM H2O2 6 h)?
A: Its value is “some reduction in cell death”.

Q: What about the “cell viability (LDH)” value ([1]; 60 μM H2O2 6 h) of the same compound?
A: The value was “increased cell viability significantly”.

Q: What about the “cell death (LDH)” value ([1]; 80 μM H2O2 6 h) of the same compound?
A: Its value is “not statistically significant”.

Q: And the “cell death (LDH)” value ([1]; 100 μM H2O2 6 h)?
A: The value was “not statistically significant”.

Q: And the clinical benefit [2]?
A: The clinical benefit was “no clinical benefit”.

Q: And the “NFM expression (Western blot)” value ([3]; 20 ng/ml)?
A: Its value is “increased NFM expression in a similar way”.

Q: What about the “expression of PSD95 (Western blot)” value ([3]; 20 ng/ml) of the same compound?
A: Its value is “increase”.

Q: And the “NFM expression (Western blot)” value ([3]; 100 ng/ml)?
A: The value was “increased NFM expression in a similar way”.

Q: What about the “expression of PSD95 (Western blot)” value ([3]; 100 ng/ml) of the same compound?
A: The value was “increase”.

Q: And the “level of tau (92e antibody, Western blot)” value [3]?
A: The value was “Neither BNDF nor peptides B-3, B-4 or B-5 had any significant effect”.

Q: With Ac-D-K-R-H-CONH2 [Peptide B-4] as the compound, how does the “expression of BDNF (Western blot)” value (BDNF) read?
A: The value was “induced the expression of BDNF”.

Q: What about the “expression of NeuN (Western blot)” value ([3]; 0.1 μM) of the same compound?
A: The value was “increased the expression of NeuN”.

Q: What about the “expression of PSD95 (Western blot)” value ([3]; 0.1 μM) of the same compound?
A: The value was “significant increment”.

Q: And the “level of tau (92e antibody, Western blot)” value [3]?
A: The value was “Neither BNDF nor peptides B-3, B-4 or B-5 had any significant effect”.

Q: With Ac-R-R-G-E-CONH2 [Peptide B-1] as the compound, how does the “cell death (LDH assay) vs vehicle treated cells” value [4] read?
A: The value was “significant reduction in cell death”.

Q: For `COC(=O)[C@@]1(O)C[C@H]2O[C@]1(C)n1c3ccccc3c3c4c(c5c6ccccc6n2c5c31)C(=O)NC4` [Peptide K252a, reference compound], which “block of the increase in expression of BDNF caused by BDNF peptides or BDNF” value (BDNF and TrkB; K252a pre-exposure 1 h (200 nM)) is on record?
A: The value was “can be blocked”.

Q: What about the “inhibition of the phosphorylation of TrkB at Tyrosine 706” value (TrkB receptor) of the same compound?
A: The value was “clear inhibition”.

Q: For `C[C@@H]1C[C@@H]([C@H](O)CC2CC(=O)NC(=O)C2)C(=O)[C@@H](C)C1` [CHX, Cycloheximide, reference compound], which “block of the increase in expression of BDNF caused by BDNF peptides or BDNF” value (BDNF and TrkB; CHX pre-exposure 1 h (100 μM)) is on record?
A: Its value is “can be blocked”.
